Measured values as given in PubChem BioAssay AID248 (DTP/NCI, 2004).
Several values for one entry are separate records, joined by “and”; a condition that tells them apart may be missing. Equal values may be shown once. Toxic doses and inconclusive results are not listed. No stated cut-off is given here; in the data, active means T/C of 150% or more; inactive means T/C below 125%.

Test system: L1210 leukemia ip in BDF1 mice, survival T/C
Test: NCI In Vivo Anticancer Drug Screen. Data for tumor model L1210 Leukemia (intraperitoneal) in B6D2F1 (BDF1) mice
Settings: endpoint: mean survival time, higher = longer survival
Outline: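 Ratio derived from survival: compound-dosed mice over vehicle-dosed mice, all bearing a transplantable tumor.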

[1] = dose: 100.0 mg/kg/injection, schedule: Q01DX009 (ip), vehicle: Klucel (hydroxypropylcellulose) (HPC)
[2] = dose: 200.0 mg/kg/injection, schedule: Q01DX009 (ip), vehicle: Klucel (hydroxypropylcellulose) (HPC)
[3] = dose: 400.0 mg/kg/injection, schedule: Q01DX009 (ip), vehicle: Klucel (hydroxypropylcellulose) (HPC)
[4] = dose: 25.0 mg/kg/injection, schedule: Q04DX003 (ip), vehicle: saline
[5] = dose: 50.0 mg/kg/injection, schedule: Q01DX001 (ip), vehicle: saline
[6] = dose: 50.0 mg/kg/injection, schedule: Q01DX009 (ip), vehicle: saline
[7] = dose: 100.0 mg/kg/injection, schedule: Q01DX009 (ip), vehicle: saline
[8] = dose: 200.0 mg/kg/injection, schedule: Q01DX001 (ip), vehicle: saline
[9] = dose: 100.0 mg/kg/injection, schedule: Q01DX001 (ip), vehicle: carboxymethylcellulose (CMC)
[10] = dose: 200.0 mg/kg/injection, schedule: Q01DX001 (ip), vehicle: carboxymethylcellulose (CMC)
[11] = dose: 400.0 mg/kg/injection, schedule: Q01DX001 (ip), vehicle: carboxymethylcellulose (CMC)
[12] = dose: 100.0 mg/kg/injection, schedule: Q01DX009 (ip), vehicle: saline with Tween-80
[13] = dose: 200.0 mg/kg/injection, schedule: Q01DX009 (ip), vehicle: saline with Tween-80
[14] = dose: 50.0 mg/kg/injection, schedule: Q01DX009 (ip), vehicle: saline with Tween-80
[15] = dose: 200.0 mg/kg/injection, schedule: Q01DX009 (ip), vehicle: saline
[16] = dose: 100.0 mg/kg/injection, schedule: Q01DX001 (ip), vehicle: saline
[17] = dose: 400.0 mg/kg/injection, schedule: Q01DX001 (ip), vehicle: saline
[18] = dose: 50.0 mg/kg/injection, schedule: Q01DX009 (ip), vehicle: Klucel (hydroxypropylcellulose) (HPC)

Measured: T/C

O=C1CC(N2CCOCC2)c2ccccc21 (stereo unspecified)
inactive: dose: 100.0 mg/kg/injection, schedule: Q01DX001 (ip), vehicle: Klucel (hydroxypropylcellulose) (HPC) 98 % of control | [1] 102 % of control | dose: 200.0 mg/kg/injection, schedule: Q01DX001 (ip), vehicle: Klucel (hydroxypropylcellulose) (HPC) 92 % of control | [2] 93 % of control | dose: 400.0 mg/kg/injection, schedule: Q01DX001 (ip), vehicle: Klucel (hydroxypropylcellulose) (HPC) 92 % of control | [3] 91 % of control

O=C(Nc1ccc(OP(=O)(O)O)cc1)c1ccc(C(=O)Nc2ccc(OP(=O)(O)O)cc2)cc1
inactive: dose: 2.5 mg/kg/injection, schedule: Q01DX Z (ip), vehicle: water 96 % of control | dose: 5.0 mg/kg/injection, schedule: Q01DX Z (ip), vehicle: water 104 % of control | dose: 7.5 mg/kg/injection, schedule: Q01DX Z (ip), vehicle: water 93 % of control | dose: 10.0 mg/kg/injection, schedule: Q01DX Z (ip), vehicle: water 93 % of control | dose: 18.7 mg/kg/injection, schedule: Q01DX Z (ip), vehicle: water 104 % of control

CC1CN1P1(N2CC2C)=NP(N2CC2C)(N2CC2C)=NP(N2CC2C)(N2CC2C)=N1 (stereo unspecified)
inactive: dose: 12.5 mg/kg/injection, schedule: Q01DX001 (ip), vehicle: saline 106 % of control | dose: 12.5 mg/kg/injection, schedule: Q04DX003 (ip), vehicle: saline 116 % of control | dose: 25.0 mg/kg/injection, schedule: Q01DX001 (ip), vehicle: saline 105 % of control | dose: 25.0 mg/kg/injection, schedule: Q01DX009 (ip), vehicle: saline 118 % of control | [4] 116 % of control | [5] 120 % of control | [6] 111 % of control | dose: 50.0 mg/kg/injection, schedule: Q04DX003 (ip), vehicle: saline 112 % of control | dose: 75.0 mg/kg/injection, schedule: Q04DX003 (ip), vehicle: acetone 120 % of control | [7] 106 % of control | dose: 170.0 mg/kg/injection, schedule: Q04DX003 (ip), vehicle: acetone 105 % of control | [8] 104 % of control

Cc1cnc(SCc2ccc(Cl)cc2)nc1N(C)C
inactive: dose: 25.0 mg/kg/injection, schedule: Q01DX Z (ip), vehicle: methylcellulose (MC) 90 % of control | dose: 50.0 mg/kg/injection, schedule: Q01DX Z (ip), vehicle: methylcellulose (MC) 100 % of control

N#Cc1cc(Cl)cc(Cl)c1
inactive: [9] 98 % of control | [10] 104 % of control | [11] 93 % of control

Cc1ccc(C#N)s1
inactive: dose: 3.12 mg/kg/injection, schedule: Q01DX009 (ip), vehicle: other 98 % of control | dose: 6.25 mg/kg/injection, schedule: Q01DX009 (ip), vehicle: other 104 % of control | dose: 12.5 mg/kg/injection, schedule: Q01DX009 (ip), vehicle: other 98 % of control | dose: 16.0 mg/kg/injection, schedule: Q04DX003 (ip), vehicle: saline 102 % of control | dose: 25.0 mg/kg/injection, schedule: Q01DX009 (ip), vehicle: other 106 % of control | [4] 117 % of control

CC1(C)OC2OC(C(O)CO)C(O)C2O1 (stereo unspecified)
inactive: dose: 100.0 mg/kg/injection, schedule: Q04DX002 (ip), vehicle: saline 86 % of control | dose: 200.0 mg/kg/injection, schedule: Q04DX002 (ip), vehicle: saline 107 % of control | dose: 400.0 mg/kg/injection, schedule: Q04DX002 (ip), vehicle: saline 90 % of control

N#CCc1ccc2c(c1)Sc1ccccc1O2
inactive: [1] 94 % of control | [2] 100 % of control | [3] 93 % of control

CCC1(CC)COC(C)(C(=O)O)OC1
inactive: [12] 96 % of control and 95 % of control | [13] 89 % of control and 101 % of control | dose: 400.0 mg/kg/injection, schedule: Q01DX009 (ip), vehicle: saline with Tween-80 90 % of control

O=C(O)/C=C\C(=O)NNC(=O)/C=C\C(=O)O
inactive: [14] 101 % of control | [6] 100 % of control | [12] 96 % of control | [7] 100 % of control | [13] 104 % of control | [15] 93 % of control

Cc1[nH]c2ccccc2c1C(Cc1ccccc1N)c1c(C)[nH]c2ccccc12
inactive: [5] 101 % of control | [16] 104 % of control | [8] 101 % of control | [17] 104 % of control

N#CSCc1ccc(CSC#N)c(Br)c1
inactive: dose: 75.0 mg/kg/injection, schedule: Q01DX009 (ip), vehicle: saline 88 % of control

CCCCO.[Sn]
inactive: [6] 99 % of control and 109 % of control | [7] 96 % of control and 109 % of control | [15] 99 % of control and 106 % of control

COc1ccc2ncc(CO)cc2c1
inactive: dose: 100.0 mg/kg/injection, schedule: Q04DX003 (ip), vehicle: saline 96 % of control | dose: 200.0 mg/kg/injection, schedule: Q04DX003 (ip), vehicle: saline 98 % of control | dose: 400.0 mg/kg/injection, schedule: Q04DX003 (ip), vehicle: saline 112 % of control

CC(C)NS(=O)(=O)c1ccc(Cl)cc1
inactive: dose: 100.0 mg/kg/injection, schedule: Q04DX003 (ip), vehicle: Klucel (hydroxypropylcellulose) (HPC) 100 % of control | dose: 200.0 mg/kg/injection, schedule: Q04DX003 (ip), vehicle: Klucel (hydroxypropylcellulose) (HPC) 102 % of control

O=C1C=CC(=O)C2C3C=CC(C3)C12 (stereo unspecified)
inactive: dose: 25.0 mg/kg/injection, schedule: Q01DX009 (ip), vehicle: Klucel (hydroxypropylcellulose) (HPC) 102 % of control | [18] 98 % of control | [1] 94 % of control and 102 % of control

CN(N=O)c1ccccc1
inactive: [5] 93 % of control | [16] 93 % of control | [8] 98 % of control | [17] 102 % of control

O=C1NNC(c2ccccc2)C1c1ccccc1 (stereo unspecified)
inactive: [9] 93 % of control | [10] 95 % of control | [11] 97 % of control

COc1ccc(N(C=O)N=O)cc1
inactive: dose: 75.0 mg/kg/injection, schedule: Q01DX001 (ip), vehicle: other 90 % of control | dose: 150.0 mg/kg/injection, schedule: Q01DX001 (ip), vehicle: other 93 % of control

COC(=O)c1cc([N+](=O)[O-])cc([N+](=O)[O-])c1O
inactive: [18] 87 % of control | dose: 100.0 mg/kg/injection, schedule: Q04DX002 (ip), vehicle: saline with Tween-80 100 % of control | dose: 200.0 mg/kg/injection, schedule: Q04DX002 (ip), vehicle: saline with Tween-80 105 % of control

CCCCCCCCCCCCCCCC(=O)OC(C)COC (stereo unspecified)
inactive: [14] 108 % of control | dose: 100.0 mg/kg/injection, schedule: Q01DX001 (ip), vehicle: other 102 % of control | [12] 98 % of control | dose: 100.0 mg/kg/injection, schedule: Q04DX003 (ip), vehicle: other 111 % of control | dose: 200.0 mg/kg/injection, schedule: Q01DX001 (ip), vehicle: other 94 % of control | [13] 98 % of control | dose: 200.0 mg/kg/injection, schedule: Q04DX003 (ip), vehicle: other 107 % of control | dose: 400.0 mg/kg/injection, schedule: Q01DX001 (ip), vehicle: other 101 % of control | dose: 400.0 mg/kg/injection, schedule: Q04DX003 (ip), vehicle: other 110 % of control
